Test results taken from patent US20230251260A1, “METHODS OF DETERMINING CANCER THERAPY” (YISSUM RESEARCH DEVELOPMENT COMPANY OF THE HEBREW …, priority 2020, published 2023).

Assays:
4T1 cells = assay: Survival assay (methylene blue) of irradiated 4T1 cells; format: cell-based, mouse; details: drugs with RT, beginning 2 days prior to RT until 6 days post-RT
Description: Survival Analysis: Cells were seeded at 70% confluency and treated as needed for different timepoints. Cells were washed with PBS and fixed with 4% PFA for 10 min. at R.T. The fixed cells were stained with Methylene Blue (MB) for 1 hour at R.T., washed and air dried overnight. The color was extracted with 0.1M HCl for 1 hour at R.T. Absorbance was read at 630 nm.

BR45 PDX = BR45 PDX in NSG mice treated by brachytherapy, tumor growth; format: in vivo, mouse; details: pretreatment prior to brachytherapy RT (12 Gy and 10 Gy)
Description: Mouse models: Syngeneic mouse model: 2.0×10^5 4T1 cells were inoculated subcutaneously on 6-7 weeks old female Balb/c mice. Allogeneic model: BR45 tumors were induced on NSG mice either by injecting 4.0×10^6 cells […] or subcutaneously transplanting xenografts. After reached the desired tumor volume (80-100 mm3), mice were randomly grouped to around 8-10 per cage and treatment were initialized. Tumor sizes were regularly measured with an electronic calliper every two days and their volumes were obtained using the formula V=(W (2)×L)/2. Mice were kept under conventional pathogen-free conditions. All in-vivo experiments were performed with approval of the Hebrew University of Jerusalem IACUC.
Tumor inoculation: 4T1 mouse breast carcinoma mimics stage IV triple negative breast cancer in human. It is highly metastatic to lungs, lymph nodes, liver and bones after implantation in the mammary fat pad of immune-competent Balb/c mice. Primary tumors were harvested after euthanizing female mice using carbon dioxide (CO2) inhalation. Time elapsed from tumor inoculation varied from 2 weeks to 1 month. […]
Drugs were given usually by IP or gavage depending on the drug. […] During this period the tumor volumes were measured regularly to observe the action of the drug. […]

Structure (SMILES)	cell survival / sensitization of 4T1 cells to RT (4T1 cells)	tumor growth, response to RT (BR45 PDX)
C[C@@H](Oc1cc(-c2cnn(C3CCNCC3)c2)cnc1N)c1c(Cl)ccc(F)c1Cl [Crizotinib]	significantly less effective in sensitizing the cells to RT	–
C#Cc1cccc(Nc2ncnc3cc(OCCOC)c(OCCOC)cc23)c1 [erlotinib, Erlotinib]	–	did not improve the results of the treatment
